Source: PubChem BioAssay (NCI)
Several values for one entry are separate records, joined by “and”; a condition that tells them apart may be missing. Equal entries are not always repeated.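 Dose response: 5 concentrations. Exposure: 48 h. Format: 96-well plates. Endpoint: linear interpolation; highest concentration if not reached. GI50 = concentration required for 50% inhibition of growth. The concentration for full growth arrest is given as TGI.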

Legend:
Assay in all cases: NCI tumour cell line growth inhibition, 48 h
OVCAR-3 ovarian = test system: OVCAR-3 ovarian
UO-31 renal = test system: UO-31 renal
UACC-62 melanoma = test system: UACC-62 melanoma
HL-60(TB) leukemia = test system: HL-60(TB) leukemia
MDA-MB-231 breast = test system: MDA-MB-231 breast
EKVX NSCLC = test system: EKVX NSCLC
HCT-116 colon = test system: HCT-116 colon
SF-268 CNS = test system: SF-268 CNS
HT29 colon = test system: HT29 colon
SNB-19 CNS = test system: SNB-19 CNS

| SMILES | GI50 (OVCAR-3 ovarian) | TGI (OVCAR-3 ovarian) | GI50 (UO-31 renal) | TGI (UO-31 renal) | GI50 (UACC-62 melanoma) | TGI (UACC-62 melanoma) | GI50 (HL-60(TB) leukemia) [µM] | TGI (HL-60(TB) leukemia) [µM] | GI50 (MDA-MB-231 breast) | TGI (MDA-MB-231 breast) | GI50 (EKVX NSCLC) | TGI (EKVX NSCLC) | GI50 (HCT-116 colon) | TGI (HCT-116 colon) | GI50 (SF-268 CNS) | TGI (SF-268 CNS) | GI50 (HT29 colon) | TGI (HT29 colon) | GI50 (SNB-19 CNS) | TGI (SNB-19 CNS) [µM] |
| --- | --- | --- | --- | --- | --- | --- | --- | --- | --- | --- | --- | --- | --- | --- | --- | --- | --- | --- | --- | --- |
| CCN(CCO)CCCOc1ccc2c(Nc3cc(CC(=O)Nc4cccc(F)c4)[nH]n3)ncnc2c1 | 10.9 µM | 42.9 µM and > 4.07 µM | > 100 µM | > 100 µM | 26.1 µM | > 59.3 µM | 13 | 40.4 | 19.2 µM | > 51.5 µM | 84.1 µM | > 100 µM | 9.63 µM | 34.6 µM and > 10 µM | 9.62 µM | 32.2 µM and > 10 µM | 13.4 µM | 66.2 µM and > 10 µM | 15.4 µM | > 60.6 |
| CC[C@@]1(O)C(=O)NCc2c1cc1n(c2=O)Cc2cc3c(NC(C)=O)cccc3nc2-1 | > 100 µM | > 100 µM | > 100 µM | > 100 µM | > 100 µM | > 100 µM | > 100 | > 100 | > 100 µM | > 100 µM | > 100 µM | > 100 µM | > 100 µM | > 100 µM | > 100 µM | > 100 µM | > 100 µM | > 100 µM | > 100 µM | > 100 |
| Cc1ccc(S(=O)(=O)CC2(Br)CCc3ccccc3C2=O)cc1 (stereo not given) |  | > 100 µM |  | 50.5 µM |  | 67.9 µM |  | 87.3 |  | 84.9 µM |  | > 100 µM |  | > 100 µM |  | 36.5 µM |  | 58.6 µM |  | > 100 |
| O=C1/C(=C/c2ccccc2[N+](=O)[O-])COc2ccc(O)c(O)c21 | 0.295 µM | 0.976 µM | 0.295 µM | 2.03 µM | 0.864 µM | 2.4 µM | 0.745 | 8.13 | 0.799 µM | 2.68 µM | 2.51 µM | 10.8 µM | 0.297 µM | 1.1 µM | 1.18 µM | 4.58 µM | 0.529 µM | 3.35 µM | 2.45 µM | 9.53 |
| COc1cc(NC(=O)c2ccccc2Nc2ccnc(C(F)(F)F)c2)cc(OC)c1OC | 22.4 µM | > 100 µM | 19.8 µM | 92.1 µM | 36.8 µM | > 100 µM | 44.3 | > 100 | > 100 µM | > 100 µM | 48.3 µM | > 100 µM | 49.6 µM | > 100 µM | > 100 µM | > 100 µM | 65 µM | > 100 µM | 77.1 µM | > 100 |
| CCN1C(=O)N(CC)C2C1NN=c1s/c(=C\c3ccc(OC)cc3)c(=O)n12 (stereo not given) | 0.114 µM | 0.526 µM | 0.653 µM | > 100 µM | 0.0704 µM | > 100 µM | 0.174 | 0.477 | 0.353 µM | > 39 µM | 0.44 µM | > 100 µM | 0.188 µM | > 100 µM | 0.577 µM | > 80.1 µM | 0.238 µM | > 82.4 µM | 0.471 µM | > 100 |
| CS(=O)(=O)N1CCc2c(-c3cnc(N)nc3)nc(N3CCOCC3)nc21 | 0.59 µM and 0.641 µM | > 21.4 µM | 0.18 µM and 0.136 µM | 3.14 µM and 3.03 µM | 0.28 µM and 0.393 µM | 2.24 µM and 2.9 µM | 0.415 | > 100 | 1.29 µM and 1.26 µM | > 10 µM and 23.4 µM | 0.988 µM and 0.44 µM | > 10 µM and 5.74 µM | 0.571 µM and 0.553 µM | > 100 µM | 0.821 µM and 1.05 µM | > 51.6 µM | 0.26 µM and 0.307 µM | > 77.5 µM | 2.21 µM and 1.64 µM | > 59.5 |
| COc1ccc2c(c1)N(CCO)C1=C(C(=O)OC1)C2c1ccc(OC)c(OC)c1 (stereo not given) | 1.92 µM | 4.24 µM | 4.65 µM | > 100 µM | 2.13 µM | > 100 µM | 2.04 | 5.51 | 3.63 µM | 10.7 µM | 6.52 µM | > 100 µM | 2.64 µM | 15.3 µM | 4.5 µM | > 100 µM | 2.73 µM | 7.51 µM | 4.54 µM | > 100 |
| COC1=CC2CCN3Cc4cc5c(cc4C(C1O)C23)OCC5 (stereo not given) | 1.78 µM | 5.62 µM | 5.88 µM | > 46.6 µM | 2.05 µM | 11.1 µM | 4.75 | > 25.7 | 2.86 µM | 22.6 µM | 4.66 µM | 32.6 µM | 1.68 µM | > 49.4 µM | 4.57 µM | > 100 µM | 0.97 µM | 9.48 µM | 0.992 µM | > 24.5 |
| C=C1C(=O)C2(C)OC2(C)C1C(=O)O (stereo not given) |  | > 100 µM |  | > 100 µM |  | > 100 µM |  | > 100 |  | > 100 µM |  | > 100 µM |  | > 100 µM |  | > 100 µM |  | > 100 µM |  | > 100 |
| CCOC(=O)c1cc(-c2ccccc2)[nH]c1N/N=C/c1c(Cl)cccc1Cl | 0.248 µM | 1.04 µM | 1.34 µM | > 100 µM | 2.03 µM | > 100 µM | 0.484 | 5.13 | 3.7 µM | 25.4 µM | 5.96 µM | > 100 µM | 0.729 µM | > 36.7 µM | 1.14 µM | > 100 µM | 0.836 µM | 16.3 µM | 3.06 µM | > 60.4 |
| CC(C)[C@H](C(=O)O[C@@H]1/C=C/C(=O)O[C@@H](C)CCC/C=C/[C@@H]2C[C@H](O)C[C@H]21)N(C)C | 8.54 µM | 37.8 µM | 15 µM | > 83.7 µM | 16.8 µM | > 89.2 µM | 28.2 | 50.7 | 12.8 µM | 51.9 µM | 8.45 µM | > 65.3 µM | 14.5 µM | 37.2 µM | 5.25 µM | 41.9 µM | 4.67 µM | > 36 µM | 30.2 µM | > 100 |
| CCCCCCSc1nc(COC(=O)NC)c(COC(=O)NC)n1C |  | > 100 µM |  | > 100 µM |  | > 100 µM |  | > 100 |  | > 100 µM |  | > 100 µM |  | > 100 µM |  | > 100 µM |  | > 100 µM |  | > 100 |
| CC12CC(=O)C3C(CCC4=CC(=O)CCC43C)C1CC=C2CC(=O)O (stereo not given) |  | > 100 µM |  | > 100 µM |  | > 100 µM |  | > 100 |  | > 100 µM |  | > 100 µM |  | > 100 µM |  | > 100 µM |  | > 100 µM |  | > 100 |
